Three compounds from ChEMBL document CHEMBL4422686, “Optimization of an azetidine series as inhibitors of colony stimulating factor-1 receptor (CSF-1R) Type II to lead to the clinical candidate JTE-952” (Bioorg Med Chem Lett, 2019) can be followed below.

Conditions in all cases: in vivo
A short description of data set [1]: Cmax in Sprague-Dawley rat at 3 mg/kg, po by LC-MS/MS analysis. Format: ADME, organism-based. Further details: dose 3 mg/kg, route oral.
The nature of data set [2]: AUC in Sprague-Dawley rat at 3 mg/kg, po by LC-MS/MS analysis. Format: ADME, organism-based.
The nature of data set [3]: Oral bioavailability in Sprague-Dawley rat at 3 mg/kg by LC-MS/MS analysis. Format: ADME, organism-based.
A short description of data set [4]: Volume of distribution in Sprague-Dawley rat at 1 mg/kg, iv by LC-MS/MS analysis. The data set is classed as ADME, organism-based.
Data set [5] is described as follows: Mean residence time in Sprague-Dawley rat at 1 mg/kg, iv by LC-MS/MS analysis. The data set is classed as ADME, organism-based.
A short description of data set [6]: Volume of distribution in cynomolgus monkey at 1 mg/kg, iv by LC-MS/MS analysis. The data set is classed as ADME, organism-based, Macaca fascicularis.
Data set [7] can be described thus: Mean residence time in cynomolgus monkey at 1 mg/kg, iv by LC-MS/MS analysis. Format: ADME, organism-based, Macaca fascicularis.

Molecules are shown by their SMILES.

The Cmax is the maximum level reached in the sampled fluid or tissue. The term AUC denotes the area under the concentration-time curve, a measure of exposure. The term Vd denotes the apparent volume that relates the amount in the body to the concentration in plasma or blood. For orientation: MRT means the average time that molecules of a dose stay in the body. Compound `COc1cc(C2CN(C(=O)c3cc(COCC(CO)(CO)CO)ccn3)C2)ccc1OCc1ccc(C2CC2)cc1` gave a Cmax in data set [1] of 270 nM. In data set [2], this compound registered an AUC of 1.63 µM·h. In data set [3], the bioavailability is 116%. Moreover, the distribution volume (Vd) in data set [4] was determined as 3.46 L/kg; in data set [6], 0.56 L/kg. Besides, the MRT in data set [5] is 0.91 h; in data set [7], 1.2 h.

Compound `COc1cc(C2CN(C(=O)c3cc(COC[C@@H](O)CO)ccn3)C2)ccc1OCc1ccc(C2CC2)cc1` gave a Cmax in data set [1] of 490 nM. Besides, the AUC in data set [2] was determined as 2.22 µM·h. The bioavailability in data set [3] was found to be 85.1%. Further, the Vd in data set [4] was found to be 3.27 L/kg; in data set [6] it was 5 L/kg. Moreover, the MRT came to 1.46 h in data set [5] and 7.5 h in data set [7].

`COc1cc(C2CN(C(=O)c3cc(OC[C@H](O)CO)ccn3)C2)ccc1OCc1ccc(C2CC2)cc1` gave a Cmax in data set [1] of 740 nM. In data set [2], this compound had an AUC of 4.15 µM·h. Further, the bioavailability in data set [3] worked out at 75.8%. Further, the figures for the Vd in data set [4] and in data set [6] were 1.51 L/kg and 0.76 L/kg, respectively. Moreover, the mean residence time MRT in data set [5] turned out to be 1.37 h; in data set [7] it was 0.28 h.
